Reference: paper PMC7731434, “Development and Validation of a Bioanalytical Method for 3′- and 6′-Sialyllactose in Minipig Liver and Kidney Using Liquid Chromatography-Tandem Mass Spectrometry and Its Application to Analysis of Tissue Distribution” (Molecules, 2020)
Like-named read-outs stand apart in the source and are kept apart here.

Key:
[1] = Biological sample stability: benchtop (room temperature 4 h) and long-term (-80 °C, 34 days); assay type: physicochemical, minipig; details: for Benchtop and long-term stability, RE (%): -80 °C 34 days then room temperature 4 h, n = 3; for Benchtop and long-term stability values (RE), range: all QC samples of 3′-SL and 6′-SL pooled
Protocol: (§1) Benchtop and long-term stability were evaluated simultaneously. The benchtop stability test was carried out at room temperature (24 °C) for 4 h using samples with long-term stability, i.e., those stored at −80 °C for 34 days. […] The post-preparative stability (RE) of samples after 21 h of storage at 10 °C in an autosampler tray ranged from –3.1% to 8.7% for liver QC samples and −10.2% to 4.7% for kidney QC samples of 3′-SL and 6′-SL. To investigate freeze/thaw stability, QC samples were frozen at −80 °C and thawed at room temperature over four cycles. The stability of all QC samples of 3′-SL and 6′-SL ranged from −6.7% to 7.6% for the liver and −9.3% to −3.2% for the kidney. All stability results satisfied the acceptance criterion of ±15% of the nominal concentration.
(§2) The biological samples were evaluated for benchtop, freeze/thaw, post-preparative, and long-term stability. The stability tests were performed by measuring LQC and HQC samples with three replicates. The background concentration of SL in the blank authentic tissues was set to the nominal LQC concentration in the stability test. As the background concentration of SL in the authentic matrix is similar to or higher than the LQC (60 ng/g), the deviation of the background concentration of SL markedly affects the accuracy of LQC. The background concentration of the blank samples was determined on initiation of the stability test. The HQC samples were prepared by adding a standard solution to the authentic matrix, and the results were calculated by subtracting the endogenous concentration in the blank matrix. Benchtop and long-term stability were evaluated simultaneously with the benchtop stability test carried out at room temperature (approximately 24 °C) for 4 h using samples with long-term stability (stored at −80 °C for 34 days). The post-preparative stability was assessed at 10 °C on an autosampler tray for 21 h. The freeze/thaw stability was evaluated by four cycles of freezing at −80 °C and thawing at room temperature.

[2] = Biological sample stability: freeze/thaw, four cycles; assay type: physicochemical, minipig; details: for Freeze/thaw stability, RE (%): four cycles -80 °C/room temperature, n = 3; for Freeze/thaw stability (RE), range: all QC samples of 3′-SL and 6′-SL pooled, four cycles
Protocol: as §1, §2

[3] = Biological sample stability: post-preparative, autosampler tray; assay type: physicochemical, minipig; details: for Post-preparative stability (RE), range: 21 h at 10 °C; for Post-preparative stability, RE (%): 10 °C for 21 h, n = 3
Protocol: as §1, §2

[4] = Tissue distribution study in minipigs after intravenous administration; assay type: in vivo, Yucatan minipigs; details: minipig; for T/P Ratio Kidney/Plasma / T/P Ratio Liver/Plasma / Kp at 2 h / concentration at 2 h: 2 h after intravenous administration of 12.5 mg/kg; for T/P Ratio Kidney/Plasma / T/P Ratio Liver/Plasma / Kp at 2 h: 12.5 mg/kg; for Kp at 2 h / concentration at 2 h: Yucatan; for Kp at 2 h: iv
Protocol: A tissue distribution study was conducted involving intravenous injection of minipigs with 3′-SL and 6′-SL at a dose of 12.5 mg/kg. Kidney, liver, and blood samples were collected. The tissue to plasma (T/P) ratio was also calculated from the concentrations of 3′-SL and 6′-SL in the kidney, liver, and plasma, from the same minipigs at the same time points.
The tissue distribution of 3′-SL and 6′-SL in Yucatan minipigs was assessed following intravenous administration at a dose of 12.5 mg/kg. The animal experiments were performed in compliance with the Animal Welfare Act and Guide for the Care and Use of Laboratory Animals of Institute for Laboratory Animal Research (ILAR). The animals were kept in a single cage at constant room temperature (23 ± 3 °C) and 30–70% humidity under a regular 12-h light/12-h dark cycle. Animals were provided with approximately 25 g/kg/day food and water was freely available.
Two minipigs were sacrificed at 2 h after administration; liver and kidney tissues, and blood from the jugular vein, were then collected. Each tissue was immediately removed and washed with normal saline, blotted dry with a paper towel, cut into pieces with scissors, and individually homogenized with three volumes of normal saline (v/w) in an Ultra-Turrax apparatus (IKA Works, Wilmington, NC, USA). After blood collection into K2-EDTA tubes, blood samples were gently mixed and placed on crushed wet-ice/Kryorack (Streck Laboratories, Omaha, NE, USA). Following centrifugation at 20,740 × g for 3 min at 4 °C for separation of plasma, the plasma was transferred into labeled polypropylene tubes.
The collected tissues were analyzed using the method developed in this study, and the plasma was analyzed by the method described in our previous study (in press).

[5] = kidney, LQC (nominal = background concentration)
[6] = liver, LQC (nominal = background concentration)
[7] = kidney QC samples of 3′-SL and 6′-SL pooled
[8] = liver QC samples of 3′-SL and 6′-SL pooled
[9] = kidney / plasma, read-out: T/P Ratio Kidney/Plasma
[10] = liver / plasma, read-out: T/P Ratio Liver/Plasma
[11] = kidney, read-out: Tissue Concentration Kidney
[12] = liver, read-out: Tissue Concentration Liver
[13] = plasma, read-out: Tissue Concentration Plasma

| Benchtop and long-term stability, RE (%) ([1]; kidney, HQC 15,000 ng/g) | Benchtop and long-term stability, RE (%) [1, 5] [%] | Benchtop and long-term stability values (RE), range ([1]; kidney) | Benchtop and long-term stability, RE (%) ([1]; liver, HQC 15,000 ng/g) | Benchtop and long-term stability, RE (%) [1, 6] [%] | Benchtop and long-term stability values (RE), range ([1]; liver) | Freeze/thaw stability, RE (%) ([2]; kidney, HQC 15,000 ng/g) | Freeze/thaw stability, RE (%) [2, 5] [%] | Freeze/thaw stability (RE), range ([2]; kidney) | Freeze/thaw stability, RE (%) ([2]; liver, HQC 15,000 ng/g) | Freeze/thaw stability, RE (%) [2, 6] [%] | Freeze/thaw stability (RE), range ([2]; liver) | Post-preparative stability (RE), range [3, 7] | Post-preparative stability, RE (%) ([3]; kidney, HQC 15,000 ng/g) | Post-preparative stability, RE (%) [3, 5] [%] | Post-preparative stability (RE), range [3, 8] | Post-preparative stability, RE (%) ([3]; liver, HQC 15,000 ng/g) | Post-preparative stability, RE (%) [3, 6] [%] | T/P Ratio Kidney/Plasma [4] | T/P Ratio Liver/Plasma [4] | SMILES | also measured |
| --- | --- | --- | --- | --- | --- | --- | --- | --- | --- | --- | --- | --- | --- | --- | --- | --- | --- | --- | --- | --- | --- |
| −6.0 | −9.2 | −10.1% to −6.0 | −5.3 | −7.6 | −7.6% to 3.7 | −8.0 | −3.2 | −9.3% to −3.2 | −6.7 | −5.8 | −6.7% to 7.6 | −10.2% to 4.7 | −3.3 | −10.2 | –3.1% to 8.7 | −2.7 | −1.3 | 1.0 | 0.12 | CC(=O)N[C@H]1[C@H]([C@H](O)[C@H](O)CO)O[C@@](O[C@H]2[C@@H](O)[C@@H](CO)O[C@@H](O[C@H]3[C@H](O)[C@@H](O)[C@H](O)O[C@@H]3CO)[C@@H]2O)(C(=O)O)C[C@@H]1O [3′-SL, 3′-sialyllactose] | Kp at 2 h [4, 9]: 1 to 1.3; Kp at 2 h [4, 10]: 0.12 to 0.14; concentration at 2 h [4, 11]: 22300 ng/g; concentration at 2 h [4, 12]: 2550 ng/g; concentration at 2 h [4, 13]: 21500 ng/g |
| −6.7 | −10.1 | −10.1% to −6.0 | −3.3 | 3.7 | −7.6% to 3.7 | −9.3 | −6.8 | −9.3% to −3.2 | −5.3 | 7.6 | −6.7% to 7.6 | −10.2% to 4.7 | 4.7 | 0.5 | –3.1% to 8.7 | 8.7 | −3.1 | 1.3 | 0.14 | CC(=O)NC1C(O)CC(OCC2OC(OC3C(CO)OC(O)C(O)C3O)C(O)C(O)C2O)(C(=O)O)OC1C(O)C(O)CO (stereo not drawn) [6′-SL, 6′-sialyllactose] | Kp at 2 h [4, 9]: 1 to 1.3; Kp at 2 h [4, 10]: 0.12 to 0.14; concentration at 2 h [4, 11]: 27000 ng/g; concentration at 2 h [4, 12]: 3030 ng/g; concentration at 2 h [4, 13]: 21000 ng/g; Exposure of tissues to 6′-SL higher than that of 3′-SL ([4]; liver and kidney, 2 h after i.v. 12.5 mg/kg): approximately 20% |
